Reference: article PMC5789597, “Cytotoxicity of seputhecarpan D, thonningiol and 12 other phytochemicals from African flora towards human carcinoma cells” (BMC Complementary and Alternative Medicine, 2018)
Like-named read-outs stand apart in the source and are kept apart here.

Experiments:
[1] = system: HepG2 hepatocarcinoma cells; experiment: Neutral red (NR) uptake cytotoxicity assay, HepG2; type: cell-based, human; details: for IC50: Homo sapiens, HepG2, NR assay, 72 h incubation; for selectivity index, HepG2: IC50 in CRL2120 normal fibroblasts divided by IC50 in HepG2
From the text: (§1) DMSO at 0.1% was used as solvent control.

[2] = system: MCF-7 breast adenocarcinoma cells; experiment: Neutral red (NR) uptake cytotoxicity assay, MCF7; type: cell-based, human; details: for IC50: Homo sapiens, MCF7, NR assay, 72 h incubation; for selectivity index, MCF7: IC50 in CRL2120 normal fibroblasts divided by IC50 in MCF7
From the text: as §1

[3] = Neutral red (NR) uptake cytotoxicity assay, Caco-2; details: human, Caco-2
From the text: (§3) Four human carcinoma cell lines and one normal cell line were used. They were: DLD-1 and Caco-2 colorectal adenocarcinoma cell lines, HepG2 hepatocarcinoma cells, MCF-7 breast adenocarcinoma cells and the normal CRL2120 human skin fibroblasts. Caco-2 cells (from the ŞAP Institute of Ankara,Turkey andMCF-7 cells (from ATCC) provided by Prof. Dr. Tansu Koparal (Anadolu University, Eskisehir, Turkey),HepG2, DLD-1 and CRL2120 cells were obtained from American Type Culture Collection (ATCC); DMEM medium (Sigma-aldrich, Munich, Germany) was used to maintain cells as a monolayer and was supplemented with 10% fetal calf serum and 1% penicillin (100 U/mL)-streptomycin (100 μg/mL) in a humidified 5% CO2 atmosphere at 37 °C.
(§4) Dimethylsufoxide (DMSO) at less than 0.1% final concentration was used to dilute the tested samples. DMSO at 0.1% was used as solvent control. The incubation time was 72 h incubation in humidified 5% CO2 atmosphere at 37 °C, followed by NR coloration as previously described [23, 24]. ELx 808 Ultra Microplate Reader (Biotek) equipped with a 540 nm filter was used to measure the absorbance. Each experiment was performed at least three times, with three replicates each. The viability was evaluated based on a comparison with untreated cells. The IC50 values represented the sample’s concentrations required to inhibit 50% of cell proliferation and were calculated from a calibration curve by linear regression using Microsoft Excel [26] as follows: for each sample, the cell growth percentages at the different concentrations were used to draw the calibration curve with logarithmic regression obtained by 2 measuring points (one smaller and one larger than 50%) from where the IC50 value was deduced.

[4] = system: Caco-2 colorectal adenocarcinoma cells; experiment: Neutral red (NR) uptake cytotoxicity assay, Caco-2; details: read-out: IC50 values, Caco-2
From the text: as §3, §4

[5] = system: normal CRL2120 human skin fibroblasts; experiment: Neutral red (NR) uptake cytotoxicity assay, normal fibroblasts; type: cell-based; details: Skin fibroblast, 72 h incubation
From the text: as §1

[6] = system: DLD-1 colorectal adenocarcinoma cells; experiment: Neutral red (NR) uptake cytotoxicity assay, DLD-1; type: cell-based, human; details: for IC50: Homo sapiens, DLD-1, NR assay, 72 h incubation; for selectivity index, DLD-1: IC50 in CRL2120 normal fibroblasts divided by IC50 in DLD-1
From the text: as §1

[7] = system: four tested cancer cell lines (MCF-7, DLD-1, Caco-2, HepG2); experiment: Neutral red (NR) uptake cytotoxicity assay, summary over the four tested cancer cell lines; type: cell-based; details: Homo sapiens
From the text: as §1

[8] = in vitro; details: human, Caco-2
From the text: as §3, §4

[9] = system: caspase 9 in MCF-7 cells; experiment: Caspase-Glo 9 assay; type: cell-based, human; details: MCF-7, 6 h, optimal activity generally at IC50, vs untreated control
From the text: (§2) The BioTek Synergy™ HT multi-detection microplate reader was used to measure the luminescence and Caspase activity was expressed as percentage of the untreated control.

[10] = system: MCF-7 cells; experiment: Cell cycle analysis and detection of apoptosis by flow cytometry; type: cell-based, human; details: for percentages of cells in sub-G0/G1 phase: MCF-7, 2 × IC50 (as printed in text); for percentages of cells in sub-G0/G1 phase / Growth (percentage of control) Sub-G0; percentage of cells in sub-G0/G1 phase: non-treated cells 3.1%; for Growth (percentage of control) Sub-G0; percentage of cells in sub-G0/G1 phase: MCF-7, 72 h, ¼ x IC50; for cell cycle arrest (phase): MCF-7 cells, 72 h
Experimental: Cells were tested in 6-well plates (3 mL, 1 × 10^5 cells/mL) and the incubation time was 72 h in humidified 5% CO2 atmosphere at 37 °C. […] Untreated cells (control) were used for comparison with treated cells. The BD FACS Aria I Cell Sorter Flow Cytometer (Becton-Dickinson, Germany) was then used for cell cycle analysis. For each sample, 10^4 cells were counted. For PI excitation, an argon-ion laser emitting at 488 nm was used. Cytographs were analyzed using BD FACSDiva™ Flow Cytometry Software Version 6.1.2 (Becton-Dickinson).

[11] = system: caspases 3/7 in MCF-7 cells; experiment: Caspase-Glo 3/7 assay; type: cell-based, human; details: MCF-7, 6 h, optimal activity generally at IC50, vs untreated control
From the text: as §2

[12] = system: MCF-7 cells; experiment: Integrity of mitochondrial membrane potential (JC-1 staining, flow cytometry); type: cell-based, human; details: MCF-7, 72 h, IC50; control 6.0%
Experimental: Cells were tested in 6-well plates (3 mL, 1 × 10^5 cells/mL) and the incubation time was 72 h in humidified 5% CO2 atmosphere at 37 °C. The tested concentrations were ¼ × IC50, ½ × IC50 and IC50. Untreated cells (control) were used for comparison with treated cells. JC-1 staining was performed according to the manufacturer’s protocol as reported previously. Cells were then measured in a BD FACS Aria I Cell Sorter Flow Cytometer (Becton-Dickinson, Germany). The JC-1 signal was measured at an excitation wavelength of 561 nm (150 mW) and detected using a 586/15 nm band-pass filter. The signal was analyzed at an excitation wavelength of 640 nm (40 mW) and detected using a 730/45 nm bandpass filter. Cytographs were analyzed using BD FACSDiva™ Flow Cytometry Software Version 6.1.2 (Becton-Dickinson). All experiments were performed at least in triplicates.

[13] = system: MCF-7 cells; experiment: Reactive oxygen species production (H2DCFH-DA); type: cell-based, human; details: MCF-7, 24 h, at IC50, compared to non-treated cells
Experimental: Cells were tested in 6-well plates (3 mL, 1 × 10^5 cells/mL) and the incubation time was 24 h in humidified 5% CO2 atmosphere at 37 °C. The tested concentrations were ¼ × IC50, ½ × IC50 and IC50. Untreated cells (control) were used for comparison with treated cells. The fluorescence was measured using SpectraMax® M5 Microplate Reader (Molecular Devices, Biberach, Germany) at 480/530 nm. All experiments were performed at least in triplicates.

[14] = all 4/4 tested cancer cell lines, read-out: IC50 values against the four tested cancer cell lines

SMILES	IC50 [1] [µM]	IC50 [2] [µM]	selectivity ratio at 72 h [3]	IC50 ([4]; Homo sapiens, Caco-2, 72 h) [µM]	IC50 [5] [µM]	IC50 [6] [µM]	selectivity index, MCF7 [2]	selectivity index, HepG2 [1]	IC50 [7, 14] [µM]	selectivity index, DLD-1 [6]	selectivity ratio at 72 h [8]	increase of caspase 9 activity [9] [fold]	percentages of cells in sub-G0/G1 phase [10] [%]	Growth (percentage of control) Sub-G0; percentage of cells in sub-G0/G1 phase [10] [%]	cell cycle arrest (phase) [10]	increase of caspases 3/7 activity [11] [fold]	P2: cells with altered MMP (MMP depletion) [12]	increase in ROS levels [13] [fold]	IC50 ([7]; 3/4 tested cancer cell lines, read-out: IC50 values in 3/4 tested cell lines) [µM]	IC50 ([4]; NR assay, 72 h incubation) [µM]
CCC(/C=C/[C@@H](C)C1CCC2C3=CCC4C[C@@H](O)CCC4(C)C3CCC21C)C(C)C (stereo partly drawn) [Compound 1, β-spinasterol]	> 97.1	> 97.1	> 1.39	69.8 ± 5.12	> 97.1	> 97.1														
C[C@H]1C(=O)CC[C@@H]2[C@]1(C)CC[C@H]1[C@@]2(C)CC[C@@]2(C)[C@@H]3CC(C)(C)CC[C@]3(C)CC[C@]12C [Compound 2, friedelanone]	> 93.9	70.8 ± 4.95		> 93.9	> 93.9	> 93.9	> 1.33													
C=C(C)[C@@H]1CC[C@@]2(C)C1C1CCC3[C@@]4(C)CC[C@H](O)C(C)(C)C4CC[C@@]3(C)[C@]1(C)C[C@@H]2O (stereo partly drawn) [Compound 3, 16β-hydroxylupeol]	35.6 ± 3.29	9.12 ± 1.02		20.8 ± 1.53	52.6 ± 5.11	15.4 ± 0.96	5.76	1.47	< 85	3.41	2.53									
CC(=O)O[C@H]1CC[C@]2(C)[C@H]3CC=C4[C@@H]5CC(C)(C)CC[C@]5(C)CC[C@@]4(C)[C@]3(C)CC[C@H]2C1(C)C [Compound 4, β-amyrin acetate]	> 85.5	> 85.5		> 85.5	> 85.5	> 85.5														
C=C(C)[C@@H]1CC[C@]2(C)CC[C@]3(C)[C@H](CC[C@@H]4[C@@]5(C)CC[C@H](OC(C)=O)C(C)(C)[C@@H]5CC[C@]43C)[C@@H]12 [Compound 5, lupeol acetate]	> 85.5	10.7 ± 0.75		> 85.5	> 85.5	> 85.5	> 8.00													
CO[C@H]1[C@H](O)[C@@H](O)[C@@H](O)[C@@H](O)[C@@H]1O [Compound 6, 5-O-methyl-myo-inositol or sequoyitol]	45.1 ± 3.42	167 ± 12		> 206	> 206	> 206	> 1.24	> 4.57												
COc1cc(O)c2c(=O)c(O[C@H]3OC(C)[C@@H](O)C(O)[C@H]3O)c(-c3ccc(O)c(O)c3)oc2c1 (stereo partly drawn) [Compound 7, rhamnitrin or 7-O-methylquercetin 3-O-rhamnoside]	> 86.6	60.9 ± 5.39		> 86.6	52.3	> 86.6	0.86													
COc1cc(O)c2c(=O)c(O[C@H]3OC(C)[C@@H](O)C(O)[C@H]3O)c(-c3cc(O)c(O)c(O)c3)oc2c1 (stereo partly drawn) [Compound 8, europetin 3-O-rhamnoside or 7-O-methylmyricetin 3-O-rhamnoside]	> 83.7	16.7 ± 1.81		> 83.7	> 83.7	> 83.7	> 5.00													
COc1cc2c(c(O)c1CC=C(C)C)C(=O)[C@H](O)[C@@H](c1ccc(O)cc1)O2 [Compound 9, thonningiol]	3.88 ± 0.04	0.36 ± 0.01	8.6	5.28 ± 0.06	45.5 ± 4.17	5.65 ± 0.03	124.59	11.72	< 10	8.05		2.67	28.3	11.6	Go/G1	3.97	11.2%	4.46		
CC1(C)C=Cc2c(O)ccc(C3COc4cc(O)cc(O)c4C3=O)c2O1 (stereo not drawn) [Compound 10, glyasperin F]	16.9 ± 1.2	11.1 ± 0.88	> 6.42	17.6 ± 1.39	> 113	20.9 ± 1.64	> 10.14	> 6.69	< 85	> 5.41										
C=C(CO)C1Cc2cc3c(cc2O1)OCC1c2ccc(O)cc2OC31 (stereo not drawn) [Compound 11, seputhecarpan B]	61.9 ± 4.2	11.9 ± 0.94	> 1.4	84.4 ± 6.32	> 118	57.9 ± 3.89	> 9.93	> 1.91	< 85	> 2.04										
C=C(CO)C1Cc2cc3c(cc2O1)OCC1c2ccc(OC)cc2OC31 (stereo not drawn) [Compound 12, seputhecarpan C]	76.7 ± 7.24	13.3 ± 0.67	> 1.69	67.3 ± 3.98	> 114	37.8 ± 1.76	> 8.55	> 1.48	< 85	> 3.00										
C=CC(C)(C)c1cc2c(cc1O)OCC1c3ccc(OC)cc3OC21 (stereo not drawn) [Compound 13, seputhecarpan D]	67.7 ± 5.18	9.78 ± 0.55	> 11.3	10.5 ± 0.48	> 118	10.8 ± 1.11	> 12.10			> 10.97		3.47	31.1	7.6	Go/G1	4.66	12.9%	3.78	< 10	
CC1(C)C=Cc2c(cc(O)c3c(=O)c4cc5c(c(O)c4oc23)OC(C)(C)C=C5)O1 [Compound 14, rheediaxanthone A]	14.6 ± 0.93	> 102	35.5	3.15 ± 0.01	80.3 ± 5.42	> 102		5.50												
COc1cccc2c1C(=O)c1c(O)c3c(c(O)c1C2=O)C[C@@](O)(C(=O)CO)C[C@@H]3O[C@H]1C[C@H](N)[C@H](O)[C@H](C)O1 [Doxorubicin, doxorubicin, reference compound]	0.18 ± 0.03	0.35 ± 0.05			0.59 ± 0.01	0.37 ± 0.05						1.3	60	27.6			up to 26.0%	2.40		0.72 ± 0.13
